Test results from US10328051B2, “Proline or proline derivatives for the treatment of dementia” (priority 2014, dated 2019).

Tests used:
[1] = Single ascending oral doses of CHP (Study 1001-68) and single IV dose (Study 0302-72): pharmacokinetics and safety in healthy volunteers; assay type: in vivo, human; settings: healthy subjects
Excerpt: study title Safety, tolerability and pharmacokinetic profile of single ascending doses of oral cis-4-hydroxy-L-proline (CHP) in healthy volunteers Galmed study no. 1001-68-. Results FIGS. 3 and 4.
Study title: Single Dose Absolute Bioavailability (intravenous IV solution) and Safety Study of CHP in Healthy Volunteers-GALMED Study No: 0302-72. Results are in (FIGS. 5 and 6)
Six healthy volunteers (male, caucasian—18-45 years old) were recruited from the GCP-Galmed clinical centre. All healthy volunteers provided written informed consent prior to study participation. The study was approved by the independent Ethical Committee.
All volunteers were orally administered 2, 4, 6, 8, 10 and 12 grams of CHP with a wash out period of at least one week between doses of CHP.
The following blood and urine samples were collected for determination of the pharmacokinetics parameters of CHP and THP:
10 hours and immediately prior to administration of CHP (0 Hour), and at 0.25, 0.5, 1, 1.5, 2, 2.5, 3, 4, 5, 6, 12 and 24 hours after administration of CHP.
Urine was collected for the determination of the CHP and THP concentrations and the calculation of the elimination parameters of CHP and THP.
Six healthy volunteers (male, caucasian—18-45 years old) were recruited from the GCP-Galmed clinical centre. All healthy volunteers provided written informed consent prior to study participation. The study was approved by the independent Ethical Committee. Single doses of CHP were intravenously administered: 2.0 g, 4.0 g (2×2.0 g). Each dose level was administered to all healthy volunteers. There was a washout period of at least one week between doses.
The following safety parameters were determined at the pre- and post-study examinations: • 1. Vital signs • 2. Clinical laboratory: Blood chemistry, Haematology, Coagulation, Urinalysis • 3. Adverse events (Signs and Symptoms) have been recorded in each of the two treatment periods.

[2] = Multiple dose ascending bioavailability and safety study (Phase I) with oral CHP (Study 0202-71); assay type: in vivo, human
Procedure: Example 5—Study Title: Multiple Dose Ascending Bioavailability and Safety Study Phase 1 with Oral CHP-GALMED Study No: 0202-71
12 healthy Caucasian males were recruited (age: 18-45 years).
Multiple doses of CHP were orally administered: • 4×2.0 g CHP per day, for 14 consecutive days (total daily dose=8.0 g CHP) • 4×3.0 g CHP per day, for 14 consecutive days (total daily dose=12.0 g CHP) Each dose level was administered to all volunteers.
Objectives • To determine the pharmacokinetic parameters and safety of CHP and THP in plasma following oral administration of multiple doses of 8 g CHP (4×2 g) and 12 g CHP (4×3 g)—4× daily, τ=6 h, respectively, in 12 healthy subjects on Day 1 and Day 14. • To model and simulate plasma concentrations of CHP and THP during Days 1 to 14.

[3] = Tissue distribution and pharmacokinetics of single dose of radiolabelled 3H-CHP in mice (Study IPSS C053); assay type: in vivo; settings: for Tissues that accumulated particularly high CHP concentrations: single dose 3H-CHP; for AUC-1 in the stomach / Cmax in the stomach / Cmax in brain & pituitary gland / AUC-1 for remaining carcass as % of the totaled AUC-1 for all tissues & samples: single dose 50 μCi 3H-CHP
Excerpt: Example 1: Tissue Distribution and Pharmacokinetic Study with CHP Study “Clinical Study in Mice on the Tissue Distribution and Pharmacokinetics of Single Dose of the Radiolabelled ^3H-CHP-Study No.: IPSS C053”—(FIG. 1). This Study has been Designed and Performed According to this Invention
1. Determination of ^3H-CHP distribution in 25 tissues, remaining carcass and whole blood over time.
2. Determination of pharmacokinetic parameters of CHP.
3. Comparison of intravenous (IV), and oral routes of administration.
^3H-CHP Labelling • CHP was labelled on the 4-prime position using tritium. • The scintillation counting technique detects the tritium atom. • Therefore the counting technique detects CHP and some metabolites which incorporate the tritium. […] They were selected using inclusion and exclusion criteria, and were therefore highly standardised.
Dosing Regimen • 48 animals were each administered 50 μCi ^3H-CHP at the start of the experiment. This was termed time zero (00:00 hrs). • 27 mice were dosed via the intravenous (IV) route. • 21 mice were dosed via the oral route. • Six (6) animals were not administered with CHP. They form two control groups of 3 mice each.
Data Collection • 3 mice were sacrificed following the SOP for anesthesia and according to the following time intervals
Sample Collection • From each sacrificed mouse, the following samples were taken: • Whole BloodEyes & Harderian GlandsKidneys & Adrenal GlandsAortaLiverLungSpleenUrinary BladderBone & Bone MarrowCaecumSmall IntestineLarge IntestineLymph Nodes (Mesenteric) Muscle, PancreasBrain & Pituitary GlandBrown FatSubcutaneous FatHeartThymousBoth TestesProstateSkinStomachThyroidSalivary GlandsRemaining CarcassUrine (collected if possible: in practise this was rare)
The remaining carcass sample consisted of the rest after removal of whole blood and the other tissues. Any material cleaned from other tissues listed above was also included. The collected remainings were homogenised before analysis.

[4] = Tissue distribution, bioaccumulation and pharmacokinetics following multiple dose administration of 3H-CHP in mice (Study IPSS E015); assay type: in vivo; settings: multiple dose administration
Excerpt: Example 2. A Study in Mice on the Tissue Distribution, Bioaccumulation and Pharmacokinetics in Tissues, Connective and BrainTissues Following Multiple Dose Administration of ^3H-CHP Study No. IPSS E015 (FIG. 2)
According to this invention the study has been designed and performed as follows:
From each mouse sacrificed, the following organs & tissues samples were taken:
Liver, kidney, pancreas, limbic system, spinal fluid, brain stem, cerebrum, cerebellum, cartilage, ligaments and tendons (dense or fibrous connective tissue), loose connective tissue, and reticular connective tissue (supports lymph nodes, bone marrow, and spleen)

[5] = after oral administration of CHP 2 g-12 g
[6] = male, human, plasma, healthy subjects, oral 4×2.0 g CHP/day
[7] = oral CHP, administration 4× daily

## O=C(O)[C@@H]1C[C@@H](O)CN1 [THP, trans-4-hydroxy-L-proline]
[1]; [5]
  Oral clearance (average): 798.42 mL/min
  Volume of distribution (average): 804.70 L
[1]; oral CHP doses 2 g-12 g
  Correlation of Cmax and AUC(0-∞) with dose: dose linearity
[1]; male, human, blood, after oral administration of CHP 2 g-12 g, read-out: Mean residence time (MRT) (average)
  MRT: 23.2 h
[1]; male, human, in vivo, after oral administration of CHP 2 g-12 g, read-out: Elimination half life (average) (converted)
  half-life: 14.8 h
[1]; male, human, plasma, after oral administration of CHP 2 g-12 g
  Tmax: 4.92 h
[2]; [6]
  Cmax: 9560 ng/mL
  Tmax: 1.5 h
  half-life: 12.4 h
[2]; male, human, plasma, healthy subjects, oral 4×2.0 g CHP/day, read-out: MRT (0-inf)
  MRT inf: 19.1 h
[2]; multiple oral doses of CHP
  Accumulation following oral administration: remarkable extent
[2]; multiple oral doses of CHP, 4× daily, simulation of plasma concentration-time curves
  Time after which a steady state was observed: ~96 h
[2]; [7]
  Css,min lower if 2.0 g of CHP was administered (versus 3.0 g): 24%
  Increase of AUCss,t, Css,max and Css,ave when the dose was increased from 2.0 g up to 3.0 g: approximately 50%

## O=C(O)C1C[C@H](O)CN1 (stereo partly shown) [^3H-CHP]
[3]; intravenous application
  Tissues that accumulated particularly high CHP concentrations: Pancreas, lymph nodes (mesenteric), kidneys & adrenal Glands, caecum, large intestine, small intestine, spleen, liver, urinary bladder
[3]; oral application
  Tissues that accumulated particularly high CHP concentrations: Pancreas, stomach, kidneys & adrenal glands, small intestine, lymph nodes (mesenteric), spleen, caecum, bone & bone marrow, large intestine, and liver
[3]; IV
  AUC-1 in the stomach: 10.493 DPM/mg
  Cmax in the stomach: 3.269 DPM/mg
[3]; IV, control 4 DPM/mg
  Cmax in brain & pituitary gland: 876 DPM/mg
[3]; intravenous (IV)
  AUC-1 for remaining carcass as % of the totaled AUC-1 for all tissues & samples: 73.3%
[3]; oral
  AUC-1 for remaining carcass as % of the totaled AUC-1 for all tissues & samples: 61.8%
  AUC-1 in the stomach: 27.297 DPM/mg
  Cmax in the stomach: 7.361 DPM/mg
[3]; oral, control 1 DPM/mg
  Cmax in brain & pituitary gland: 419 DPM/mg
[4]
  Tissues with particular high levels of 3H-CHP accumulation: kidneys and adrenal glands liver, pancreas loose connective tissue cartilage, reticular connective tissue, dense/fibrinous connective tissues
